Source: ChEMBL document CHEMBL3616440, “Non-basic azolotriazinone MCHR1 antagonists for the treatment of obesity: An empirical brain-exposures-driven candidate selection for in vivo efficacy studies” (Bioorg Med Chem Lett, 2015)

Key:
[1] = test system: Rattus norvegicus; test: Antiobesity activity in Sprague-Dawley rat assessed as body weight reduction at 10 mg/kg, po qd after 4 days relative to control; format: functional; settings: 96 h
[2] = test system: Rattus norvegicus; test: Antiobesity activity in Sprague-Dawley rat assessed as body weight reduction at 30 mg/kg, po qd after 4 days relative to control; format: functional; settings: 96 h
[3] = test system: Liver; test: Prodrug conversion in oral-dosed Sprague-Dawley rat liver assessed as 6-(4-chlorophenyl)-3-(4-(2,3-dihydroxypropoxy)-3-methoxyphenyl)pyrrolo[1,2-f][1,2,4]triazin-4(3H)-one formation; format: ADME, tissue-based; settings: in vivo
[4] = test system: Brain; test: Drug concentration in Sprague-Dawley rat brain assessed as 6-(4-chlorophenyl)-3-(4-(2-hydroxypropoxy)-3-methoxyphenyl)pyrrolo[1,2-f][1,2,4]triazin-4(3H)-one level at 30 mg/kg, po qd after 10 days; format: ADME, organism-based; settings: in vivo, 240 h, read-out: Drug uptake
[5] = test system: Brain; test: Free drug level in Sprague-Dawley rat brain assessed as 6-(4-chlorophenyl)-3-(4-(2-hydroxypropoxy)-3-methoxyphenyl)pyrrolo[1,2-f][1,2,4]triazin-4(3H)-one level at 30 mg/kg, po qd at 20 hrs; format: ADME, organism-based; settings: in vivo
[6] = test system: Brain; test: Drug concentration in Sprague-Dawley rat brain assessed as 6-(4-chlorophenyl)-3-(4-(2-hydroxypropoxy)-3-methoxyphenyl)pyrrolo[1,2-f][1,2,4]triazin-4(3H)-one level at 10 mg/kg, po qd after 10 days; format: ADME, organism-based; settings: in vivo, 240 h, read-out: Drug uptake
[7] = test system: Rattus norvegicus; test: Antiobesity activity in Sprague-Dawley rat assessed as body weight reduction at 3 mg/kg, po qd after 4 days relative to control; format: functional; settings: 96 h
[8] = test system: Brain; test: Drug concentration in Sprague-Dawley rat brain assessed as 6-(4-chlorophenyl)-3-(4-(2-hydroxypropoxy)-3-methoxyphenyl)pyrrolo[1,2-f][1,2,4]triazin-4(3H)-one level at 3 mg/kg, po qd after 10 days; format: ADME, organism-based; settings: in vivo, 240 h, read-out: Drug uptake
[9] = test system: Rattus norvegicus; test: Toxicity in Sprague-Dawley rat assessed as biliary lesion at 10 mg/kg, po qd for 10 days; format: organism-based; settings: in vivo, 240 h
[10] = test system: Liver; test: Prodrug conversion in oral-dosed Sprague-Dawley rat liver assessed as 3-(4-(6-(4-chlorophenyl)-4-oxopyrrolo[1,2-f][1,2,4]triazin-3(4H)-yl)-2-methoxyphenoxy)-2-hydroxypropanoic acid formation; format: ADME, tissue-based; settings: in vivo
[11] = Ratio of free drug level in brain of Sprague-Dawley rat assessed as 6-(4-chlorophenyl)-3-(4-(2-hydroxypropoxy)-3-methoxyphenyl)pyrrolo[1,2-f][1,2,4]triazin-4(3H)-one level at 30 mg/kg, po to Ki for rat MCHR1; format: ADME, organism-based; settings: in vivo
[12] = test system: Plasma; test: Fraction unbound in Sprague-Dawley rat plasma assessed as 6-(4-chlorophenyl)-3-(4-(2-hydroxypropoxy)-3-methoxyphenyl)pyrrolo[1,2-f][1,2,4]triazin-4(3H)-one level; format: ADME, cell-free
[13] = test system: Rattus norvegicus; test: Prodrug conversion in oral-dosed Sprague-Dawley rat assessed as 6-(4-chlorophenyl)-3-(4-(2,3-dihydroxy-2-methylpropoxy)-3-methoxyphenyl)thieno[3,2-d]pyrimidin-4(3H)-one formation; format: ADME, organism-based; settings: in vivo
[14] = test system: Plasma; test: Fraction unbound in Sprague-Dawley rat plasma assessed as 6-(4-chlorophenyl)-3-(4-(2-hydroxy-2-methylpropoxy)-3-methoxyphenyl)thieno[3,2-d]pyrimidin-4(3H)-one level; format: ADME, cell-free
[15] = test system: Rattus norvegicus; test: Prodrug conversion in oral-dosed Sprague-Dawley rat assessed as 3-(4-(6-(4-chlorophenyl)-4-oxothieno[3,2-d]pyrimidin-3(4H)-yl)-2-methoxyphenoxy)-2-hydroxy-2-methylpropanoic acid formation; format: ADME, organism-based; settings: in vivo
[16] = test system: Brain; test: Free drug level in Sprague-Dawley rat brain assessed as 6-(4-chlorophenyl)-3-(4-(2-hydroxy-2-methylpropoxy)-3-methoxyphenyl)thieno[3,2-d]pyrimidin-4(3H)-one level at 10 mg/kg, po qd at 20 hrs; format: ADME, organism-based; settings: in vivo
[17] = Ratio of free drug level in brain of Sprague-Dawley rat assessed as 6-(4-chlorophenyl)-3-(4-(2-hydroxy-2-methylpropoxy)-3-methoxyphenyl)thieno[3,2-d]pyrimidin-4(3H)-one level at 10 mg/kg, po to Ki for rat MCHR1; format: ADME, organism-based; settings: in vivo
[18] = test system: Brain; test: Drug concentration in Sprague-Dawley rat brain assessed as 6-(4-chlorophenyl)-3-(6-(4-hydroxypiperidin-1-yl)pyridin-3-yl)pyrrolo[1,2-f][1,2,4]triazin-4(3H)-one level at 3 mg/kg, po qd at 20 hrs; format: ADME, organism-based; settings: in vivo, read-out: Drug uptake
[19] = Ratio of free drug level in brain of Sprague-Dawley rat assessed as 6-(4-chlorophenyl)-3-(6-(4-hydroxypiperidin-1-yl)pyridin-3-yl)pyrrolo[1,2-f][1,2,4]triazin-4(3H)-one level at 10 mg/kg, po to Ki for rat MCHR1; format: ADME, organism-based; settings: in vivo
[20] = Ratio of free drug level in brain of Sprague-Dawley rat assessed as 6-(4-chlorophenyl)-3-(6-(4-hydroxypiperidin-1-yl)pyridin-3-yl)pyrrolo[1,2-f][1,2,4]triazin-4(3H)-one level at 30 mg/kg, po to Ki for rat MCHR1; format: ADME, organism-based; settings: in vivo
[21] = test system: Brain; test: Drug concentration in Sprague-Dawley rat brain assessed as 6-(4-chlorophenyl)-3-(6-(4-hydroxypiperidin-1-yl)pyridin-3-yl)pyrrolo[1,2-f][1,2,4]triazin-4(3H)-one level at 30 mg/kg, po qd at 20 hrs; format: ADME, organism-based; settings: in vivo, read-out: Drug uptake
[22] = test system: Brain; test: Free drug level in Sprague-Dawley rat brain assessed as 6-(4-chlorophenyl)-3-(6-(4-hydroxypiperidin-1-yl)pyridin-3-yl)pyrrolo[1,2-f][1,2,4]triazin-4(3H)-one level at 30 mg/kg, po qd at 20 hrs; format: ADME, organism-based; settings: in vivo
[23] = test system: Plasma; test: Fraction unbound in Sprague-Dawley rat plasma assessed as 6-(4-chlorophenyl)-3-(6-(4-hydroxypiperidin-1-yl)pyridin-3-yl)pyrrolo[1,2-f][1,2,4]triazin-4(3H)-one level; format: ADME, cell-free
[24] = test system: Brain; test: Drug concentration in Sprague-Dawley rat brain assessed as 6-(4-chlorophenyl)-3-(6-(4-hydroxypiperidin-1-yl)pyridin-3-yl)pyrrolo[1,2-f][1,2,4]triazin-4(3H)-one level at 10 mg/kg, po qd at 20 hrs; format: ADME, organism-based; settings: in vivo, read-out: Drug uptake
[25] = test system: Brain; test: Free drug level in Sprague-Dawley rat brain assessed as 6-(4-chlorophenyl)-3-(6-(4-hydroxypiperidin-1-yl)pyridin-3-yl)pyrrolo[1,2-f][1,2,4]triazin-4(3H)-one level at 3 mg/kg, po qd at 20 hrs; format: ADME, organism-based; settings: in vivo
[26] = Ratio of free drug level in brain of Sprague-Dawley rat assessed as 6-(4-chlorophenyl)-3-(6-(4-hydroxypiperidin-1-yl)pyridin-3-yl)pyrrolo[1,2-f][1,2,4]triazin-4(3H)-one level at 3 mg/kg, po to Ki for rat MCHR1; format: ADME, organism-based; settings: in vivo
[27] = test system: Brain; test: Free drug level in Sprague-Dawley rat brain assessed as 6-(4-chlorophenyl)-3-(6-(4-hydroxypiperidin-1-yl)pyridin-3-yl)pyrrolo[1,2-f][1,2,4]triazin-4(3H)-one level at 10 mg/kg, po qd at 20 hrs; format: ADME, organism-based; settings: in vivo

COc1cc(-n2cnn3cc(-c4ccc(Cl)cc4)cc3c2=O)ccc1OCC(C)OC(=O)[C@@H](N)C(C)C (stereo partly specified)
inhibition in vivo at 10 mg/kg [1]: 3.9%
inhibition in vivo at 30 mg/kg [2]: 7.6%
Drug metabolism [3]: 6 µM
concentration [4]: 20.8 µM
Drug uptake(free) [5]: 8.4 nM
concentration [6]: 12.9 µM
inhibition in vivo at 3 mg/kg [7]: 2.6%
concentration [8]: 4.12 µM
Activity [9]: Toxic
Drug metabolism [10]: 46 µM
Ratio [11]: 6
Fu [12]: 0.4%

COc1cc(-n2cnc3cc(-c4ccc(Cl)cc4)sc3c2=O)ccc1OCC(C)(C)OC(=O)CN
inhibition in vivo at 10 mg/kg [1]: 6.9%
Drug metabolism [13]: metabolite_detected
Fu [14]: 0.7%
Drug metabolism [15]: metabolite_detected
Drug uptake(free) [16]: 11.3 nM
Ratio [17]: 1.6

CC(C)[C@H](N)C(=O)OC1CCN(c2ccc(-n3cnn4cc(-c5ccc(Cl)cc5)cc4c3=O)cn2)CC1
inhibition in vivo at 10 mg/kg [1]: 1.3%
inhibition in vivo at 30 mg/kg [2]: 2.6%
concentration [18]: 1970 nM
Ratio [19]: < 1.1
Ratio [20]: < 1.7
inhibition in vivo at 3 mg/kg [7]: 1.3%
concentration [21]: 15.1 µM
Drug uptake(free) [22]: < 30 nM
Fu [23]: < 0.2%
concentration [24]: 10.1 µM
Drug uptake(free) [25]: < 3.9 nM
Ratio [26]: < 0.2
Drug uptake(free) [27]: < 20 nM
